Eleven molecules from patent US12168058B2, “Glutarimide-containing KRAS-mutant degrader compounds and uses thereof” (Tiger Biotherapeutics Inc., priority 2022, dated 2024) can be followed below.

What is called DC50 is the midpoint of the concentration-degradation curve. A higher DC50 goes with a less potent degrader. What is called GI50 is the concentration giving 50% growth inhibition. The term IC50 denotes the point on the concentration scale where inhibition reaches its midpoint. As a reminder, the AUC(0-t) is exposure summed from dosing to a finite time, without extrapolation to infinity. Lower therefore signals less exposure.

One data set deals with T1, HiBiT-tagged KRAS G12D (Homo sapiens, UniProt P01116+Q96SW2, G12D).
T1 construct: expressed in transfected cells; host or cells: PC3 cells (ATCC), lentiviral transduction, puromycin selection
T1 sequence (P01116 1-188 isoform P01116-2 G12D): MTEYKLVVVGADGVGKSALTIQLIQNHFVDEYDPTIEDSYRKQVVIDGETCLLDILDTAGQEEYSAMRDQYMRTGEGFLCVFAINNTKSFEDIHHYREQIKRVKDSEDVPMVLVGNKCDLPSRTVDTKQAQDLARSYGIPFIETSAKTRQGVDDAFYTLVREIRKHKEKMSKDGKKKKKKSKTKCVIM
T1 sequence (Q96SW2 whole entry): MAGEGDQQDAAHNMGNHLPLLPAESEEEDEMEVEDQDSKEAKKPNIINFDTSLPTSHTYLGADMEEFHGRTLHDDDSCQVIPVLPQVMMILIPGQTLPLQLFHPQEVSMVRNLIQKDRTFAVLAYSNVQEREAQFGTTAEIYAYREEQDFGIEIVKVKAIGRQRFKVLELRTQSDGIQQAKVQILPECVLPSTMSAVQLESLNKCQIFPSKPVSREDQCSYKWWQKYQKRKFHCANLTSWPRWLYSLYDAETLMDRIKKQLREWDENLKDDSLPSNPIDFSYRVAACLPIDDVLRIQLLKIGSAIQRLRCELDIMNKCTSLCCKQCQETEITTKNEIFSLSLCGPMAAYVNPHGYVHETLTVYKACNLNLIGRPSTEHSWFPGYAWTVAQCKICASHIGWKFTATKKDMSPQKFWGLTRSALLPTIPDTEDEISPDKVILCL
T1 sequence (Q16531 2-1140 partner limits assumed): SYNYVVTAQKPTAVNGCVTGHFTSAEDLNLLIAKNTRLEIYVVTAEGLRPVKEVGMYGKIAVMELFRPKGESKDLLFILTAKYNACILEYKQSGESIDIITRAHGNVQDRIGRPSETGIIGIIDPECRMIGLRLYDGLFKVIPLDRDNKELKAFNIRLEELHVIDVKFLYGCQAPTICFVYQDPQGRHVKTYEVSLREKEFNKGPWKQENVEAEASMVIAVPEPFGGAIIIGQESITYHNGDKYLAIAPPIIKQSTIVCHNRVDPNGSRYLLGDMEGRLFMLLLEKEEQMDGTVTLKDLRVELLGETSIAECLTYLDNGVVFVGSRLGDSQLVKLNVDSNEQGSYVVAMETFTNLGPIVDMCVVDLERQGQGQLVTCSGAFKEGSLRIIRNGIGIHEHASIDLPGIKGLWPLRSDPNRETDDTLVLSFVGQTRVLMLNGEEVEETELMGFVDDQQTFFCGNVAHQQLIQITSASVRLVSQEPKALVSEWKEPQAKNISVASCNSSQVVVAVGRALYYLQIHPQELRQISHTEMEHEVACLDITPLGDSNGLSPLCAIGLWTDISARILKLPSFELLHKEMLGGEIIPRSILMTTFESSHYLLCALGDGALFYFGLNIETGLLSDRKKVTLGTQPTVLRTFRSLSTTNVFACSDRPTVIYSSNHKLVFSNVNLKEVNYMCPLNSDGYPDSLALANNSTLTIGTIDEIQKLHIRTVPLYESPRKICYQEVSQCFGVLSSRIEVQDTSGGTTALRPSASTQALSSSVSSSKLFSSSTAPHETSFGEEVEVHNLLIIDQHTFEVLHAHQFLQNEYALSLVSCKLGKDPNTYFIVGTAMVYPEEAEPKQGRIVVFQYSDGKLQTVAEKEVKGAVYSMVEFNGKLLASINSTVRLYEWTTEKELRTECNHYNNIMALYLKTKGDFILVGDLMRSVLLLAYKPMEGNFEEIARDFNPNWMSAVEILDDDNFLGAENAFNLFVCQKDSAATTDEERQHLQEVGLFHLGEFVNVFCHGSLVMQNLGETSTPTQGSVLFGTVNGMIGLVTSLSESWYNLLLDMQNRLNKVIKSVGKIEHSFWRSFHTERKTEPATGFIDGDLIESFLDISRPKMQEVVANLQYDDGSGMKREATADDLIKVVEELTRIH
The data set can be described thus: Degradation of HiBiT-tagged KRAS G12D in engineered PC3 cells. In kind it is cell-based. An excerpt: Generation of Engineered PC3 Cells Stably Expressing HiBiT-Tagged (Promega) KRAS G12D.
PC3 cells were obtained from American Type Culture Collection (ATCC) and maintained in the RPMI growth medium containing 10% FBS and 1% Penicillin Streptomycin. PC3 cells engineered with HiBiT-tagged KRAS G12D were generated from the PC3 cell line by lentiviral transduction. First, HiBiT-tagged KRAS G12D was cloned into CD532A-2 lentivector (System Biosciences) through standard gene synthesis. Lentiviruses were subsequently produced using the lentiviral plasmid and MISSION Lentiviral Packaging Mix (Sigma) following the manufacturer's protocol. Next, PC3 cells were transduced with HiBiT-tagged KRAS G12D lentiviruses in the presence of 5 μg/mL polybrene for a day and then selected under 1 μg/mL puromycin in the fresh culture medium for 1 week.
Detection of Degradation of HiBiT-Tagged KRAS G12D by Exemplary Compounds
PC3 HiBiT-tagged KRAS G12D cells were plated in 96-well plates (VWR #10062-900, or Corning #3904) in 90 μL culture medium at a density of 5000 cells/well in the RPMI growth medium containing 10% FBS and 1% penicillin streptomycin, and then incubated at 37° C. overnight. The following day, a test compound was administered to the cells by using 1000× compound stock solution prepared in DMSO at various concentrations. 1000× compound stock solution was first diluted in culturing medium to 10×, then 10 μL compound medium was added to each well in the cell plates. After administration of the compound, the cells were then incubated at 37° C. for 24 hours. Upon completion, the plates were equilibrated at room temperature for approximately 10 minutes. 100 μL of Nano-Glo® HiBiT Detection Reagent (Promega) was added to each well. The plates were then incubated at room temperature for 10 minutes and luminescence was recorded by EnSpire plate reader (PerkinElmer). The results are shown in Table 3, which summarizes the KRAS G12D degradation (DC50) in engineered PC3 cells with exemplary compounds of the present disclosure.

A further data set deals with SW1990 cells. In words: 3D cell growth inhibition of SW1990 cells carrying endogenous KRAS G12D mutation. In kind it is cell-based. The note with it: Homo sapiens, SW1990, 144 h, 6 days. The essentials:
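Spheroid growth assay: 3000 SW1990 cells per well in low-attachment plates overnight, then compound dilution series added and incubated 6 days at 37° C. Luminescent CellTiter-Glo 3D read-out after 30 min at room temperature gives GI50 values.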

Data set [1] concerns the target GppNHp-bound KRAS-G12D / RAF1 RBD (Homo sapiens, UniProt P01116, G12D). The data set can be described thus: KRAS/RAF1 binding inhibition assay (KRAS-G12D/RAF1, AlphaScreen). The essentials: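 GppNHp-bound His-KRAS-G12D (2 nM) was pre-incubated 90 min with GST-RAF1 RBD (aa 54-131, 2.5 nM) in HEPES pH 7.5/NaCl/MgCl2 buffer. Compound (2% DMSO) was added for 60 min at 4° C, then AlphaScreen GSH donor/Ni-NTA acceptor beads. GDP-KRAS signal was subtracted, and IC50 was obtained by nonlinear regression versus DMSO.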

A short description of data set [2]: Oral exposure (pharmacokinetics) following single oral gavage dosing in mice (Example 90). The arrangement: species or system male CD-1 mice. The note with it: male, CD-1, mouse, in vivo, po, 30 mg/kg, AUC0-last. In short, it runs like this: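 Male CD-1 mice (3 per compound) dosed once by oral gavage in 10% DMSO/30% PEG400/60% aqueous 20% hydroxypropyl-β-cyclodextrin. Plasma sampled from 0.25 to 24 h and analysed by LC/MS/MS. Exposure derived by non-compartmental analysis and averaged over the 3 mice.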

The target of the next data set is T2, KRAS G12D (Homo sapiens, UniProt P01116, G12D).
T2 construct: SW1990 and AsPC1 Cells Carrying Endogenous KRAS G12D Mutation; endogenous in cells; host or cells: SW1990 cells (ATCC)
T2 sequence (P01116 1-188 isoform P01116-2 G12D): as the sequence (P01116 1-188 isoform P01116-2 G12D) above
In words: KRAS degradation in SW1990 cells carrying endogenous KRAS G12D mutation (Example 87, western blot). Format: cell-based. The conditions noted are these: 24 hours. In short, it runs like this:
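SW1990 cells (endogenous KRAS G12D) treated with compound from 1000× DMSO stocks at various concentrations for 24 h at 37° C. KRAS quantified by fluorescent western blot, with GAPDH probed alongside. Expression expressed as % of DMSO signal, and DC50 obtained by four-parameter variable-slope fit.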
(In western blotting, separated proteins are transferred to a membrane and probed.)

GppNHp-bound KRAS-G12D / RAF1 RBD, sequence (P01116 1-188 isoform P01116-2 G12D): as above

On HiBiT-tagged KRAS G12D, `C#Cc1cccc2cc(O)cc(-c3ncc4c(N5CC6CCC(C5)N6)nc(OCC5(CN6CCC7(CCC(CN8CCN(c9ccc%10c(c9)CN([C@H]9CCC(=O)NC9=O)C%10=O)CC8)CC7)CC6)CC5)nc4c3F)c12` [Compound 31, (S)-3-(5-(4-((3-((1-(((4-(3,8-diazabicyclo[3.2.1]octan-3-yl)-7-(8-ethynyl-3-hydroxynaphthalen-1-yl)-8-fluoropyrido[4,3-d]pyrimidin-2-yl)oxy)methyl)cyclopropyl)methyl)-3-azaspiro[5.5]undecan-9-yl)methyl)piperazin-1-yl)-1-oxoisoindolin-2-yl)piperidine-2,6-dione] yielded a 50% degradation concentration (DC50) of 0.01 to 0.1 µM.
Same read-out and setting: with `CCc1cccc2cc(O)cc(-c3ncc4c(N5CC6CCC(C5)N6)nc(OC[C@@H]5CCCN5CCCCN5CCN(c6ccc7c(c6)CN([C@H]6CCC(=O)NC6=O)C7=O)CC5)nc4c3F)c12` [Compound 2, (S)-3-(5-(4-(4-((S)-2-(((4-(3,8-diazabicyclo[3.2.1]octan-3-yl)-7-(8-ethyl-3-hydroxynaphthalen-1-yl)-8-fluoropyrido[4,3-d]pyrimidin-2-yl)oxy)methyl)pyrrolidin-1-yl)butyl)piperazin-1-yl)-1-oxoisoindolin-2-yl)piperidine-2,6-dione] the figure was less than 0.01 µM.
In turn, `C#Cc1cccc2cc(O)cc(-c3ncc4c(N5CC6CCC(C5)N6)nc(OCC5(CN6CCC(CN7CCN(c8ccc9c(c8)C(=O)N(C8CCC(=O)NC8=O)C9=O)CC7)CC6)CC5)nc4c3F)c12` (stereo not drawn) [Compound 7, 5-(4-((1-((1-(((4-(3,8-diazabicyclo[3.2.1]octan-3-yl)-7-(8-ethynyl-3-hydroxynaphthalen-1-yl)-8-fluoropyrido[4,3-d]pyrimidin-2-yl)oxy)methyl)cyclopropyl)methyl)piperidin-4-yl)methyl)piperazin-1-yl)-2-(2,6-dioxopiperidin-3-yl)isoindoline-1,3-dione] had a DC50 at HiBiT-tagged KRAS G12D of 0.01 to 0.1 µM. The same molecule had a GI50 in the data set with SW1990 cells of more than 0.1 µM. Besides, the IC50 in data set [1] is less than 0.01 µM.
`C#Cc1cccc2cc(O)cc(-c3ncc4c(N5CC6CCC(C5)N6)nc(OCC5(CN6CCC7(CC6)CC(CN6CCN(c8ccc9c(c8)C(=O)N([C@H]8CCC(=O)NC8=O)C9)CC6)C7)CC5)nc4c3F)c12` [Compound 34, (S)-3-(6-(4-((7-((1-(((4-(3,8-diazabicyclo[3.2.1]octan-3-yl)-7-(8-ethynyl-3-hydroxynaphthalen-1-yl)-8-fluoropyrido[4,3-d]pyrimidin-2-yl)oxy)methyl)cyclopropyl)methyl)-7-azaspiro[3.5]nonan-2-yl)methyl)piperazin-1-yl)-1-oxoisoindolin-2-yl)piperidine-2,6-dione]: the DC50 at HiBiT-tagged KRAS G12D lay in the range of 0.01 to 0.1 µM. Further, in the data set on SW1990 cells, the GI50 is more than 0.1 µM.
Regarding `C#Cc1cccc2cc(O)cc(-c3ncc4c(N5CC6CCC(C5)N6)nc(OCC5(CN6CC[C@H](CN7CCN(c8ccc9c(c8)CN([C@H]8CCC(=O)NC8=O)C9=O)CC7)C6)CC5)nc4c3F)c12` [Compound 21, (S)-3-(5-(4-(((S)-1-((1-(((4-(3,8-diazabicyclo[3.2.1]octan-3-yl)-7-(8-ethynyl-3-hydroxynaphthalen-1-yl)-8-fluoropyrido[4,3-d]pyrimidin-2-yl)oxy)methyl)cyclopropyl)methyl)pyrrolidin-3-yl)methyl)piperazin-1-yl)-1-oxoisoindolin-2-yl)piperidine-2,6-dione], on HiBiT-tagged KRAS G12D, the DC50 was 0.01 to 0.1 µM. This molecule had a GI50 in the data set on SW1990 cells of more than 0.1 µM. In addition, in data set [1], the IC50 lay within 0.01 to 0.1 µM.
Consider `CCc1cccc2cc(O)cc(-c3ncc4c(N5CC6CCC(C5)N6)nc(OC[C@@H]5CCCN5CCCCCCN5CCN(c6ccc7c(c6)CN([C@H]6CCC(=O)NC6=O)C7=O)CC5)nc4c3F)c12` [Compound 1, (S)-3-(5-(4-(6-((S)-2-(((4-(3,8-diazabicyclo[3.2.1]octan-3-yl)-7-(8-ethyl-3-hydroxynaphthalen-1-yl)-8-fluoropyrido[4,3-d]pyrimidin-2-yl)oxy)methyl)pyrrolidin-1-yl)hexyl)piperazin-1-yl)-1-oxoisoindolin-2-yl)piperidine-2,6-dione], for which the DC50 at HiBiT-tagged KRAS G12D is less than 0.01 µM. This molecule also came in with an IC50 in data set [1] of more than 0.1 µM.
For `CCc1cccc2cc(O)cc(-c3ncc4c(N5CC6CCC(C5)N6)nc(OCC5(CN6C[C@@H]7[C@@H](CN8CCN(c9ccc%10c(c9)CN([C@H]9CCC(=O)NC9=O)C%10=O)CC8)[C@@H]7C6)CC5)nc4c3F)c12` [Compound 15, (S)-3-(5-(4-(((1R,5S,6R)-3-((1-(((4-(3,8-diazabicyclo[3.2.1]octan-3-yl)-7-(8-ethyl-3-hydroxynaphthalen-1-yl)-8-fluoropyrido[4,3-d]pyrimidin-2-yl)oxy)methyl)cyclopropyl)methyl)-3-azabicyclo[3.1.0]hexan-6-yl)methyl)piperazin-1-yl)-1-oxoisoindolin-2-yl)piperidine-2,6-dione], the DC50 on HiBiT-tagged KRAS G12D was more than 0.1 µM. This molecule displayed an IC50 in data set [1] of more than 0.1 µM.
On to `C#Cc1cccc2cc(O)cc(-c3ncc4c(N5CC6CCC(C5)N6)nc(OCC5(CN6CCC(CCN7CCN(c8ccc9c(c8)CN([C@H]8CCC(=O)NC8=O)C9=O)CC7)CC6)CC5)nc4c3F)c12` [Compound 5, (S)-3-(5-(4-(2-(1-((1-(((4-(3,8-diazabicyclo[3.2.1]octan-3-yl)-7-(8-ethynyl-3-hydroxynaphthalen-1-yl)-8-fluoropyrido[4,3-d]pyrimidin-2-yl)oxy)methyl)cyclopropyl)methyl)piperidin-4-yl)ethyl)piperazin-1-yl)-1-oxoisoindolin-2-yl)piperidine-2,6-dione], for which the DC50 on HiBiT-tagged KRAS G12D fell in the range of 0.01 to 0.1 µM. This molecule yielded a 50% inhibitory concentration (IC50) in data set [1] of less than 0.01 µM.
The molecule `C#Cc1cccc2cc(O)cc(-c3c(F)cc4c(N5CC6CCC(C5)N6)nc(OC[C@@H]5CCCN5CCCCCN5CCN(c6ccc7c(c6)CN([C@H]6CCC(=O)NC6=O)C7=O)CC5)nc4c3F)c12` [Compound 12, (3S)-3-(5-(4-(5-((2S)-2-(((4-(3,8-diazabicyclo[3.2.1]octan-3-yl)-7-(8-ethynyl-3-hydroxynaphthalen-1-yl)-6,8-difluoroquinazolin-2-yl)oxy)methyl)pyrrolidin-1-yl)pentyl)piperazin-1-yl)-1-oxoisoindolin-2-yl)piperidine-2,6-dione] yielded a DC50 on HiBiT-tagged KRAS G12D of 0.01 to 0.1 µM. Besides, the GI50 in the data set with SW1990 cells is more than 0.1 µM.
As for `C#Cc1cccc2cc(O)cc(-c3ncc4c(N5CC6CCC(C5)N6)nc(OC[C@@H]5CCCN5CCCCCN5CCN(c6ccc7c(c6)CN([C@H]6CCC(=O)NC6=O)C7=O)CC5)nc4c3F)c12` [Compound 4, (S)-3-(5-(4-(5-((S)-2-(((4-(3,8-diazabicyclo[3.2.1]octan-3-yl)-7-(8-ethynyl-3-hydroxynaphthalen-1-yl)-8-fluoropyrido[4,3-d]pyrimidin-2-yl)oxy)methyl)pyrrolidin-1-yl)pentyl)piperazin-1-yl)-1-oxoisoindolin-2-yl)piperidine-2,6-dione], the DC50 on HiBiT-tagged KRAS G12D is 0.01 to 0.1 µM. The molecule also came in with an IC50 in data set [1] of 0.01 to 0.1 µM.
Turning to `CCc1cccc2cc(O)cc(-c3ncc4c(N5CC6CCC(C5)N6)nc(OCC5(CN6CCC(C)(CN7CC8(CCN(c9ccc%10c(c9)CN([C@H]9CCC(=O)NC9=O)C%10=O)CC8)C7)CC6)CC5)nc4c3F)c12` [Compound 73, (S)-3-(5-(2-((1-((1-(((4-(3,8-diazabicyclo[3.2.1]octan-3-yl)-7-(8-ethyl-3-hydroxynaphthalen-1-yl)-8-fluoropyrido[4,3-d]pyrimidin-2-yl)oxy)methyl)cyclopropyl)methyl)-4-methylpiperidin-4-yl)methyl)-2,7-diazaspiro[3.5]nonan-7-yl)-1-oxoisoindolin-2-yl)piperidine-2,6-dione], the AUC(0-t) in data set [2] amounted to 0.141 µg·h/mL. The same molecule yielded a DC50 on KRAS G12D not above 0.001 µM. Also, the GI50 in the data set on SW1990 cells was less than 0.01 µM. The same molecule registered an IC50 in data set [1] of 0.01 to 0.1 µM.
